Experimental data as given in US8501936B2 (priority 2009, dated 2013).

Key:
human JAK2 = human JAK2 (Homo sapiens (Human), UniProt O60674); conditions: read-out: JAK2 IC50
human FAK = human FAK (Homo sapiens (Human), UniProt Q05397); conditions: read-out: FAK IC50
Sequence of human FAK (Q05397 whole entry): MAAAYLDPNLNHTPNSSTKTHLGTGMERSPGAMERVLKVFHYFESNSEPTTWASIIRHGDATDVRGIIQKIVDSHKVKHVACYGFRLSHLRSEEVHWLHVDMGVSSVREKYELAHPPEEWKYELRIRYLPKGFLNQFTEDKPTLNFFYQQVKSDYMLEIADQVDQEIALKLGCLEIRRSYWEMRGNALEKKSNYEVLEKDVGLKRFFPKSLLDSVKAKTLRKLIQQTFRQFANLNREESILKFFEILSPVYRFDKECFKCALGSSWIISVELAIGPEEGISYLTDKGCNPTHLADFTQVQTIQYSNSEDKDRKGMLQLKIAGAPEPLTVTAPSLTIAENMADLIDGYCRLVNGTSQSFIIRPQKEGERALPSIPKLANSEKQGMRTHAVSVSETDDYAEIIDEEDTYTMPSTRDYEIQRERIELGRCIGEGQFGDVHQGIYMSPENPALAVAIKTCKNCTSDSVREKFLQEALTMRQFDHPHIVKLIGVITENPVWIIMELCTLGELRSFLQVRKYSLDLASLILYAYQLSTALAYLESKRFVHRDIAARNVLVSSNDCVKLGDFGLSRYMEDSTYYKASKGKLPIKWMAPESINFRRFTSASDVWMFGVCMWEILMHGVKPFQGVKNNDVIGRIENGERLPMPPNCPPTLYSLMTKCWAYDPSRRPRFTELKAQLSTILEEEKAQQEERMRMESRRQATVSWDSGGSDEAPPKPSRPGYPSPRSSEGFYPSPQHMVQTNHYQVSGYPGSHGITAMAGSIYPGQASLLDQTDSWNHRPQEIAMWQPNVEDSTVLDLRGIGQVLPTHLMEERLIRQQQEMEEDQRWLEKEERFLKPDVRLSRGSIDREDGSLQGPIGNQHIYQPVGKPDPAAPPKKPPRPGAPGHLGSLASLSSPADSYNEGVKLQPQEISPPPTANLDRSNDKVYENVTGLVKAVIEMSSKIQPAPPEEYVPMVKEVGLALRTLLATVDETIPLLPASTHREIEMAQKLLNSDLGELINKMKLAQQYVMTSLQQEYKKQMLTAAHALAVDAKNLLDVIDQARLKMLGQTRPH

Sequence of human JAK2 (O60674 815-1132): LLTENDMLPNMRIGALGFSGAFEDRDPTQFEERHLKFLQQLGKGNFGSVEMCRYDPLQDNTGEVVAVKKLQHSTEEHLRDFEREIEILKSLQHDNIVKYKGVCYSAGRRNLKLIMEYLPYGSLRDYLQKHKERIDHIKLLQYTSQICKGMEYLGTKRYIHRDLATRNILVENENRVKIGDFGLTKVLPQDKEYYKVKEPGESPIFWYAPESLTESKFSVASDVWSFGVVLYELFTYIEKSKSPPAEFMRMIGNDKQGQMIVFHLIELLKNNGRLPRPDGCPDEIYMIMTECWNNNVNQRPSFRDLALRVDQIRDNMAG

COc1ccccc1CNc1cccn2nc(Nc3cccc(N4CCN(C)CC4)c3)nc12 [Example 388, N(8)-(2-Methoxy-benzyl)-N(2)-[3-(4-methyl-piperazin-1-yl)-phenyl]-[1,2,4]triazolo[1,5-a]pyridine-2,8-diamine]
IC50 (human JAK2): 46 nM | IC50 (human FAK): 951 nM

CN(C)C(=O)CN1CCc2ccc(Nc3nc4c(-c5cc(C(F)F)ccc5OCC(F)F)cccn4n3)cc2CC1 [Example 385, 2-(7-{8-[2-(2,2-difluoro-ethoxy)-5-difluoromethyl-phenyl]-[1,2,4]triazolo[1,5-a]pyridin-2-ylamino}-1,2,4,5-tetrahydro-3-benzazepin-3-yl)-N,N-dimethyl-acetamide]
IC50 (human JAK2): 270 nM | IC50 (human FAK): 1120 nM

CN1CCN(c2ccc(Nc3nc4cccc(-c5cccc(S(C)(=O)=O)c5)n4n3)cc2)CC1 [Example 82, [5-(3-Methanesulfonyl-phenyl)-[1,2,4]triazolo[1,5-a]pyridin-2-yl]-[4-(4-methyl-piperazin-1-yl)-phenyl]-amine]
IC50 (human JAK2): 9.2 nM | IC50 (human FAK): 584 nM

CC(C)COc1cccc(-c2cccn3nc(Nc4ccc5c(c4)CCNCC5)nc23)c1 [Example 294, [8-(3-Isobutoxy-phenyl]-[1,2,4]triazolo[1,5a]pyridine-2-yl]-(2,3,4,5-tetrahydro-benzo[d]azepin-7-yl)-amine]
IC50 (human JAK2): 32.6 nM | IC50 (human FAK): 3000 nM

CN(Cc1cccc(-c2cccn3nc(Nc4ccc(OCCN5CCCC5)cc4)nc23)c1)S(C)(=O)=O [Example 177, N-Methyl-N-(3-{2-[4-(2-pyrrolidin-1-yl-ethoxy)-phenylamino]-[1,2,4]triazolo[1,5-a]pyridin-8-yl}-benzyl)-methanesulfonamide]
IC50 (human JAK2): 7.34 nM | IC50 (human FAK): 3000 nM

CN1Cc2ccc(Nc3nc4c(C#Cc5ccccc5N(C)S(C)(=O)=O)cccn4n3)cc2C1 [Example 193, N-Methyl-N-{2-[2-(2-methyl-2,3-dihydro-1H-isoindol-5-ylamino)-[1,2,4]triazolo[1,5-a]pyridin-8-ylethynyl]-phenyl}-methanesulfonamide]
IC50 (human JAK2): 11.5 nM | IC50 (human FAK): 3000 nM

CN1Cc2ccc(Nc3nc4c(NCc5cccnc5N(C)S(C)(=O)=O)cccn4n3)cc2C1 [Example 166, N-Methyl-N-(3-{[2-(2-methyl-2,3-dihydro-1H-isoindol-5-ylamino)-[1,2,4]triazolo[1,5-a]pyridin-8-ylamino]-methyl}-pyridin-2-yl)-methanesulfonamide]
IC50 (human JAK2): 12.8 nM | IC50 (human FAK): 48.1 nM

FC(F)COc1ccc(Cl)cc1-c1cccn2nc(Nc3ccc4c(c3)CCNCC4)nc12 [Example 377, {8-[5-Chloro-(2,2-difluoro-ethoxy)-phenyl]-[1,2,4]triazolo[1,5-a]pyridin-2-yl}-(2,3,4,5-tetrahydro-1H-3-benzazepin-7-yl)-amine]
IC50 (human JAK2): 44 nM | IC50 (human FAK): 443 nM

COc1ccc(C(F)(F)F)cc1-c1cccn2nc(Nc3ccc4c(c3)CCN(CCS(C)(=O)=O)CC4)nc12 [Example 322, [3-(2-Methanesulfonyl-ethyl)-2,3,4,5-tetrahydro-1H-3-benzazepin-7-yl]-[8-(2-methoxy-5-trifluoromethyl-phenyl)-[1,2,4]triazolo[1,5-a]pyridine-2-yl]-amine]
IC50 (human JAK2): 12.7 nM | IC50 (human FAK): 572 nM

CS(=O)(=O)c1ccccc1Nc1cccn2nc(Nc3ccc(OCCN4CCCC4)cc3)nc12 [Example 126, N(8)-(2-Methanesulfonyl-phenyl)-N(2)-[4-(2-pyrrolidin-1-yl-ethoxy)-phenyl]-[1,2,4]triazolo[1,5-a]pyridine-2,8-diamine]
IC50 (human JAK2): 14.3 nM | IC50 (human FAK): 1300 nM

CCOc1ccccc1-c1cccn2nc(Nc3ccc4c(c3)CCN(CCS(C)(=O)=O)CC4)nc12 [Example 245]
IC50 (human JAK2): 70 nM | IC50 (human FAK): 10000 nM

COc1ccccc1-c1cccn2nc(Nc3ccc4c(c3)CCN(CCS(C)(=O)=O)CC4)nc12 [Example 314, [3-(2-Methanesulfonyl-ethyl)-2,3,4,5-tetrahydro-1H-3-benzazepin-7-yl]-[8-(2-methoxy-phenyl)-[1,2,4]triazolo[1,5-a]pyridine-2-yl]-amine]
IC50 (human JAK2): 17.8 nM | IC50 (human FAK): 10000 nM

CN(c1ccccc1CNc1cccn2nc(Nc3ccc4c(c3)CCC(N3CCOCC3)CC4)nc12)S(C)(=O)=O (stereo not drawn) [Example 200, N-Methyl-N-(2-{[2-(7-morpholin-4-yl-6,7,8,9-tetrahydro-5H-benzocyclohepten-2-ylamino)-[1,2,4]triazolo[1,5-a]pyridin-8-ylamino]-methyl}-phenyl)-methanesulfonamide]
IC50 (human JAK2): 134 nM | IC50 (human FAK): 18.2 nM

COc1ncccc1-c1cccn2nc(Nc3ccc(C4CCN(C(=O)OC(C)(C)C)CC4)cc3)nc12 [Example 271]
IC50 (human JAK2): 675 nM | IC50 (human FAK): 10000 nM

CN1CCC(c2cccc(Nc3nc4c(-c5ccc(S(C)(=O)=O)cc5)cccn4n3)c2)CC1 [Example 61, [8-(4-Methanesulfonyl-phenyl)-[1,2,4]triazolo[1,5-a]pyridin-2-yl]-[3-(1-methyl-piperidin-4-yl)-phenyl]-amine]
IC50 (human JAK2): 0.7 nM | IC50 (human FAK): 265 nM

CS(=O)(=O)c1ccc(-c2cccn3nc(Nc4cccc(S(C)(=O)=O)c4)nc23)cc1 [Example 113, (3-Methanesulfonyl-phenyl)-[8-(4-methanesulfonyl-phenyl)-[1,2,4]triazolo[1,5-a]pyridin-2-yl]-amine]
IC50 (human JAK2): 5.57 nM | IC50 (human FAK): 693 nM

COc1cc(N2CCN(C)CC2)ccc1Nc1nc2c(NCc3cccnc3N(C)S(C)(=O)=O)cccn2n1 [Example 137, N-[3-({2-[2-Methoxy-4-(4-methyl-piperazin-1-yl)-phenylamino]-[1,2,4]triazolo[1,5-a]pyridin-8-ylamino}-methyl)-pyridin-2-yl]-N-methyl-methanesulfonamide]
IC50 (human JAK2): 3000 nM | IC50 (human FAK): 39.7 nM

CN1Cc2ccc(Nc3nc4c(-c5ccc(S(C)(=O)=O)cc5)cccn4n3)cc2C1 [Example 168, [8-(4-Methanesulfonyl-phenyl)-[1,2,4]triazolo[1,5-a]pyridin-2-yl]-(2-methyl-2,3-dihydro-1H-isoindol-5-yl)-amine]
IC50 (human JAK2): 0.73 nM | IC50 (human FAK): 816 nM

FC(F)COc1ccc(C(F)F)cc1-c1cccn2nc(Nc3ccc4c(c3)CCNCC4)nc12 [Example 384, {8-[2-(2,2-Difluoro-ethoxy)-5-difluoromethyl-phenyl]-[1,2,4]triazolo[1,5-a]pyridin-2-yl}-(2,3,4,5-tetrahydro-1H-3-benzazepin-7-yl)-amine]
IC50 (human JAK2): 203 nM | IC50 (human FAK): 1080 nM

CN1CCN(c2cccc(Nc3nc4c(-c5cnn(-c6ccc(F)cc6)c5)cccn4n3)c2)CC1 [Example 288, {8-[1-(4-Fluoro-phenyl)-1H-pyrazol-4-yl]-[1,2,4]triazolo[1,5-a]pyridine-2-yl}-[3-(4-methyl-piperazin-1-yl)-phenyl]-amine]
IC50 (human JAK2): 5.64 nM | IC50 (human FAK): 3000 nM

COc1ccc(C(F)(F)F)cc1-c1cccn2nc(Nc3ccc4c(c3)CCN(CC(=O)N(C)C)CC4)nc12 [Example 317, 2-{7-[8-(2-Methoxy-5-trifluoromethyl-phenyl)-[1,2,4]triazolo[1,5-a]pyridin-2-ylamino]-1,2,4,5-tetrahydro-3-benzazepin-3-yl}-N,N-dimethyl-acetamide]
IC50 (human JAK2): 54.5 nM | IC50 (human FAK): 2000 nM

C[C@@H](O)CN1CCN(c2cccc(Nc3nc4c(-c5ccc(S(C)(=O)=O)cc5)cccn4n3)c2)CC1 [Example 143, (R)-1-(4-{3-[8-(4-Methanesulfonyl-phenyl)-[1,2,4]triazolo[1,5-a]pyridin-2-ylamino]-phenyl}-piperazin-1-yl)-propan-2-ol]
IC50 (human JAK2): 1.13 nM | IC50 (human FAK): 1990 nM

CN1CCC(c2ccc(Nc3nc4c(Nc5ccccc5CS(C)(=O)=O)cccn4n3)cc2)CC1 [Example 165, N(8)-(2-Methanesulfonylmethyl-phenyl)-N(2)-[4-(1-methyl-piperidin-4-yl)-phenyl]-[1,2,4]triazolo[1,5-a]pyridine-2,8-diamine]
IC50 (human JAK2): 39.9 nM | IC50 (human FAK): 2000 nM

COc1ccc(C(F)(F)F)cc1-c1cccc2nc(Nc3ccc4c(c3)CCNCC4)nn12 [Example 234, [5-(2-Methoxy-5-trifluoromethyl-phenyl)-[1,2,4]triazolo[1,5-a]pyridine-2-yl]-(2,3,4,5-tetrahydro-1H-benzo[d]azepin-7-yl)-amine]
IC50 (human JAK2): 23.4 nM | IC50 (human FAK): 547 nM

COc1ccc(Nc2nc3c(Nc4ccccc4S(C)(=O)=O)cccn3n2)cc1 [Example 47, N(8)-(2-Methanesulfonyl-phenyl)-N(2)-(4-methoxy-phenyl)-[1,2,4]triazolo[1,5-a]pyridine-2,8-diamine]
IC50 (human JAK2): 12.8 nM | IC50 (human FAK): 3000 nM

CN1CCN(C2CCN(c3cccc(Nc4nc5c(-c6ccc(S(C)(=O)=O)cc6)cccn5n4)c3)CC2)CC1 [Example 58, [8-(4-Methanesulfonyl-phenyl)-[1,2,4]triazolo[1,5-a]pyridin-2-yl]-{3-[4-(4-methyl-piperazin-1-yl)-piperidin-1-yl]-phenyl}-amine]
IC50 (human JAK2): 1.5 nM | IC50 (human FAK): 2390 nM

CS(=O)(=O)CCN1CCc2ccc(Nc3nc4c(-c5cccc6c5OC(F)(F)O6)cccn4n3)cc2CC1 [Example 247, [8-(2,2-difluoro-1,3-benzodioxol-4-yl)-[1,2,4]triazolo[1,5-a]pyridin-2-yl]-[3-(2-methanesulfonyl-ethyl)-2,3,4,5-tetrahydro-1H-3-benzazepin-7-yl)amine]
IC50 (human JAK2): 24.8 nM | IC50 (human FAK): 2000 nM

COc1cccc(CNc2cccn3nc(Nc4ccc(OC)nc4)nc23)c1 [Example 394, N(8)-(3-Methoxy-benzyl)-N(2)-(6-methoxy-pyridin-3-yl)-[1,2,4]triazolo[1,5-a]pyridine-2,8-diamine]
IC50 (human JAK2): 10000 nM | IC50 (human FAK): 10000 nM

CN1CCC(c2ccc(Nc3nc4c(Nc5cccnc5N(C)S(C)(=O)=O)cccn4n3)cc2)CC1 [Example 133, N-Methyl-N-(3-{2-[4-(1-methyl-piperidin-4-yl)-phenylamino]-[1,2,4]triazolo[1,5-a]pyridin-8-ylamino}-pyridin-2-yl)-methanesulfonamide]
IC50 (human JAK2): 17.4 nM | IC50 (human FAK): 2070 nM

CN1CCN(c2ccc(Nc3nc4c(-c5ccc(N(C)S(C)(=O)=O)cc5)cccn4n3)cc2)CC1 [Example 62, N-Methyl-N-(4-{2-[4-(4-methyl-piperazin-1-yl)-phenylamino]-[1,2,4]triazolo[1,5-a]pyridin-8-yl}-phenyl)-methanesulfonamide]
IC50 (human JAK2): 0.6 nM | IC50 (human FAK): 999 nM
